Assay results: US6461997B1, “Triazole sulfones having herbicidal activity” (Monsanto Technology LLC, priority 1999, dated 2002)

How the values were obtained:
PANDI (fall panicum) = assay: Pre-plant incorporated (PPI) herbicidal activity, warm season; format: in vivo, Panicum dichotomiflorum; conditions: pre-plant incorporated; lowest tested rate with 80% or greater inhibition; about 14 days
Experimental: (§1) In another set of tests, the pre-plant incorporated (PPI) activity of compounds of this invention was evaluated on the same species as for the pre-emergence tests described above. In the PPI tests the following procedure, designed to simulate PPI application, was used.
(§2) A pre-prepared topsoil mixture (described above) was placed in a pot and compacted to a depth of 1.0 to 1.25 cm from the top of the pot. Seeds of each of several monocotyledonous and dicotyledonous annual plant species were placed on top of the soil. A sufficient quantity of soil to cover the seeds and level fill the pot was weighed into an open container. A known amount of the test compound was dissolved or suspended in an organic solvent and applied by spraying to this cover soil. The cover soil was thoroughly mixed to distribute the test compound throughout the cover soil, and was then applied as a cover layer over the seeds. Untreated soil was used as a cover layer for control pots. After treatment the plants were placed in a greenhouse where they received 0.64 cm of overhead irrigation. All subsequent watering consisted of a light overhead mist and/or subirrigation as needed for germination and growth. Tables 9 and 10 below relate to warm season plant species which were placed after pre-emergence treatment in a greenhouse with a 30/21° C. day/night temperature regime. Tables 11 and 12 below relates to cool season plant species placed after pre-emergence treatment in a greenhouse or growth chamber with an 18/13° C. day/night temperature regime. Only the compounds of Examples 1, 6, 8, 11, 13 and 15-20 were included in PPI tests.
(§3) Approximately 14 days after planting and treating, the plants were observed and herbicidal efficacy recorded as percent inhibition by comparison with untreated plants.

[1] = system: LAMPU (purple deadnettle); assay: Pre-emergence herbicidal activity, cool season; format: in vivo, Lamium purpureum; conditions: lowest tested rate with 80% or greater inhibition; rates 300, 100, 30, 10 g/ha; about 14 days
How it was run: (§4)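 GR80 values derive from percent inhibition relative to untreated plants, read roughly 14 days after sowing and pre-emergence soil-surface treatment (compound in 50:50 acetone/water; rates typically 10, 30, 100, 300 g/ha). Warm-season weeds grew at 30/21° C day/night, cool-season ones at 18/13° C; an asterisk marks activity without reaching 80% at the highest rate.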

AMARE (redroot pigweed) = assay: Pre-plant incorporated (PPI) herbicidal activity, warm season; format: in vivo, Amaranthus retroflexus; conditions: pre-plant incorporated; GR80 = lowest tested rate with 80% or greater inhibition; approx. 14 days after treating; 30/21° C.
Experimental: as §1, §2, §3

SINAR (wild mustard) [2] = assay: Pre-emergence herbicidal activity, cool season; format: in vivo, Sinapis arvensis; conditions: lowest tested rate with 80% or greater inhibition; rates 300, 100, 30, 10 g/ha; about 14 days
How it was run: as §4

[3] = system: PANMI (wild proso millet); assay: Pre-plant incorporated (PPI) herbicidal activity, warm season; format: in vivo, Panicum miliaceum; conditions: pre-plant incorporated; lowest tested rate with 80% or greater inhibition; about 14 days
Experimental: as §1, §2, §3

[4] = system: GALAP (catchweed bedstraw); assay: Pre-emergence herbicidal activity, cool season; format: in vivo, Galium aparine; conditions: lowest tested rate with 80% or greater inhibition; rates 300, 100, 30, 10 g/ha; about 14 days
How it was run: as §4

POLCO (wild buckwheat) = assay: Pre-plant incorporated (PPI) herbicidal activity, cool season; format: in vivo, Polygonum convolvulus; conditions: pre-plant incorporated; lowest tested rate with 80% or greater inhibition; about 14 days
Experimental: as §1, §2, §3

DATST (jimsonweed) = assay: Pre-plant incorporated (PPI) herbicidal activity, warm season; format: in vivo, Datura stramonium; conditions: pre-plant incorporated; GR80 = lowest tested rate with 80% or greater inhibition; approx. 14 days after treating; 30/21° C.
Experimental: as §1, §2, §3

ALOMY (blackgrass) = assay: Pre-plant incorporated (PPI) herbicidal activity, cool season; format: in vivo, Alopecurus myosuroides; conditions: pre-plant incorporated; lowest tested rate with 80% or greater inhibition; about 14 days
Experimental: as §1, §2, §3

SASKR (russian thistle) = assay: Pre-emergence herbicidal activity, cool season; format: in vivo, Salsola kali; conditions: lowest tested rate with 80% or greater inhibition; rates 300, 100, 30, 10 g/ha; about 14 days
How it was run: as §4

SINAR (wild mustard) [5] = assay: Pre-plant incorporated (PPI) herbicidal activity, cool season; format: in vivo, Sinapis arvensis; conditions: pre-plant incorporated; lowest tested rate with 80% or greater inhibition; about 14 days
Experimental: as §1, §2, §3

BROTE (downy brome) = assay: as above; format: in vivo, Bromus tectorum; conditions: pre-plant incorporated; lowest tested rate with 80% or greater inhibition; about 14 days
Experimental: as §1, §2, §3

SOLNI (black nightshade) = assay: Pre-emergence herbicidal activity, warm season; format: in vivo, Solanum nigrum; conditions: GR80 = lowest tested rate (300, 100, 30, 10 g/ha) with 80% or greater inhibition; approx. 14 days after treating; 30/21° C.
How it was run: as §4

Compound	PPI activity GR80, PANDI (PANDI (fall panicum))	Pre-emergence activity GR80, LAMPU [1]	PPI activity (GR80) AMARE (AMARE (redroot pigweed))	Pre-emergence activity GR80, SINAR (SINAR (wild mustard) [2])	PPI activity GR80, PANMI [3]	Pre-emergence activity GR80, GALAP [4]	PPI activity GR80, POLCO (POLCO (wild buckwheat))	PPI activity (GR80) DATST (DATST (jimsonweed))	PPI activity GR80, ALOMY (ALOMY (blackgrass))	Pre-emergence activity GR80, SASKR (SASKR (russian thistle))	PPI activity GR80, SINAR (SINAR (wild mustard) [5])	PPI activity GR80, BROTE (BROTE (downy brome))	Pre-emergence activity (GR80) SOLNI (SOLNI (black nightshade))
CCN(CC)C(=O)n1cnc(S(=O)(=O)C(F)(F)C(=O)c2ccccc2)n1 [Example 6]	100 g/ha	100 g/ha	100 g/ha	300 g/ha	100 g/ha	100 g/ha	300 g/ha	300 g/ha	300 g/ha	[empty]	300 g/ha	* (activity observed, at least at highest rate, but <80% inhibition)	–
CCN(CC)C(=O)n1cnc(S(=O)(=O)C(F)(F)C(F)(F)SC)n1 [Example 14]	–	300 g/ha	–	[empty]	–	30 g/ha	–	–	–	[empty]	–	–	300 g/ha
